Data from US20250382297A1, “INHIBITORS OF FGFR2 AND FGFR3 AND USES THEREOF” (Insilico Medicine IP Limited, priority 2022, published 2025).
Like-named read-outs stand apart in the source and are kept apart here.

Tests used:
FGFR1 = FGFR1 (Homo sapiens (Human), UniProt P11362); assay: FGFR biochemical assay (LanthaScreen TR-FRET kinase assay), FGFR1
Method: (§1) Convert Ratio values to percent inhibition values (Percent inhibition=(max−sample Ratio)/(max−min)*100) where “min” means the Ratio of no enzyme control and “max” means the Ratio of DMSO control. • Data are analyzed and curve fitting is performed by XLFit Excel add-in version 5.4.0.8. The IC50 calculation equation is: Y=Bottom+(Top-Bottom)/(1+ (IC50/X)^HillSlope.

FGFR2 = FGFR2 (Homo sapiens (Human), UniProt P21802); assay: FGFR biochemical assay (LanthaScreen TR-FRET kinase assay), FGFR2
Method: as §1

FGFR3 = FGFR3 (Homo sapiens (Human), UniProt P22607); assay: FGFR biochemical assay (LanthaScreen TR-FRET kinase assay), FGFR3
Method: as §1

[1] = read-out: FGFR2 IC50, * incubation at room temperature for 60 minutes before addition of substrate solution, ATP 22 μM, FGFR2 0.01 nM
[2] = read-out: FGFR3 IC50, * incubation at room temperature for 60 minutes before addition of substrate solution, ATP 35 μM, FGFR3 0.1 nM
[3] = read-out: FGFR2 IC50, incubation with enzyme at room temperature for 10 minutes before substrate, ATP 22 μM, FGFR2 0.01 nM
[4] = read-out: FGFR3 IC50, incubation with enzyme at room temperature for 10 minutes before substrate, ATP 35 μM, FGFR3 0.1 nM
[5] = read-out: FGFR1 IC50, incubation with enzyme at room temperature for 10 minutes before substrate, ATP 28 μM, FGFR1 0.01 nM

Sequence of FGFR1 (P11362 22-822): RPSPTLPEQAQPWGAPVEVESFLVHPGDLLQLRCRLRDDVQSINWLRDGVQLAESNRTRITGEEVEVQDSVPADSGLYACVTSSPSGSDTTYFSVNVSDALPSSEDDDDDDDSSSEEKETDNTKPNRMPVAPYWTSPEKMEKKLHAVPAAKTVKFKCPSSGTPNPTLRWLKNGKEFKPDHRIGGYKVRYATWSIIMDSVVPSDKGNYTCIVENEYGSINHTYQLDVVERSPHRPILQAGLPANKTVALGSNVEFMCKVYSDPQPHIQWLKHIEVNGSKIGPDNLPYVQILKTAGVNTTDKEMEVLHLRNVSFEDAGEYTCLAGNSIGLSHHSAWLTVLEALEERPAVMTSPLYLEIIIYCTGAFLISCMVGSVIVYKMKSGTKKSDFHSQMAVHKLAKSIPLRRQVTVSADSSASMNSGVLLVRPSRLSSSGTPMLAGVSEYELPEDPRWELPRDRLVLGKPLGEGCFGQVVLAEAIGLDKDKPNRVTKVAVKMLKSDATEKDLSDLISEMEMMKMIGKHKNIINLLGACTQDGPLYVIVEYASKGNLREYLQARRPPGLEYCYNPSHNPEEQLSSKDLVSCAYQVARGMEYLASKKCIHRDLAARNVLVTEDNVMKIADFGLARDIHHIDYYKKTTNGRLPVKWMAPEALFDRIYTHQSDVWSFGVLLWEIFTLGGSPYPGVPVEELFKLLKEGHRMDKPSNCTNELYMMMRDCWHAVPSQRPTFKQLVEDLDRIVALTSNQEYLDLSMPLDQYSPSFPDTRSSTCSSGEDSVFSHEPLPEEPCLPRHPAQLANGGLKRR
Sequence of FGFR3 (P22607 23-806): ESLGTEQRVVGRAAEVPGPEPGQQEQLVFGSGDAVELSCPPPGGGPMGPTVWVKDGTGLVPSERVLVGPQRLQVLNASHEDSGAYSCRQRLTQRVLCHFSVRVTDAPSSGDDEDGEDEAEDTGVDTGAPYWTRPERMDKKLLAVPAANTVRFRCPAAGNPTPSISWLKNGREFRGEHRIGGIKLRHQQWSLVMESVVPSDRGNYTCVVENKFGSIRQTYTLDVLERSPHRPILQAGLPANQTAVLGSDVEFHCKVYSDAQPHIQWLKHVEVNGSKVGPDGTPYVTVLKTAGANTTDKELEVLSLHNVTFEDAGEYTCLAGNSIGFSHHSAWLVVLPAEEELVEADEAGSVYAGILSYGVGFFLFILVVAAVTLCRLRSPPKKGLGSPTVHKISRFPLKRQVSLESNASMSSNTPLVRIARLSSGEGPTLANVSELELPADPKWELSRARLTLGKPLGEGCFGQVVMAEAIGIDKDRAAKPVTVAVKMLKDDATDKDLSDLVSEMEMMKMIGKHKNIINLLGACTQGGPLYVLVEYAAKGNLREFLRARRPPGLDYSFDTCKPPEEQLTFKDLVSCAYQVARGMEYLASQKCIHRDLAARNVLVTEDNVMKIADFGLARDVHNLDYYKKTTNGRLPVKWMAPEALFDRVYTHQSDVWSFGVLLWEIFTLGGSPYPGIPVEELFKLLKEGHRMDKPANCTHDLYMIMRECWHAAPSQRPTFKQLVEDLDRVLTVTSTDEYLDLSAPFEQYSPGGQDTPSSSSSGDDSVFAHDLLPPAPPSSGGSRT
Sequence of FGFR2 (P21802 22-821): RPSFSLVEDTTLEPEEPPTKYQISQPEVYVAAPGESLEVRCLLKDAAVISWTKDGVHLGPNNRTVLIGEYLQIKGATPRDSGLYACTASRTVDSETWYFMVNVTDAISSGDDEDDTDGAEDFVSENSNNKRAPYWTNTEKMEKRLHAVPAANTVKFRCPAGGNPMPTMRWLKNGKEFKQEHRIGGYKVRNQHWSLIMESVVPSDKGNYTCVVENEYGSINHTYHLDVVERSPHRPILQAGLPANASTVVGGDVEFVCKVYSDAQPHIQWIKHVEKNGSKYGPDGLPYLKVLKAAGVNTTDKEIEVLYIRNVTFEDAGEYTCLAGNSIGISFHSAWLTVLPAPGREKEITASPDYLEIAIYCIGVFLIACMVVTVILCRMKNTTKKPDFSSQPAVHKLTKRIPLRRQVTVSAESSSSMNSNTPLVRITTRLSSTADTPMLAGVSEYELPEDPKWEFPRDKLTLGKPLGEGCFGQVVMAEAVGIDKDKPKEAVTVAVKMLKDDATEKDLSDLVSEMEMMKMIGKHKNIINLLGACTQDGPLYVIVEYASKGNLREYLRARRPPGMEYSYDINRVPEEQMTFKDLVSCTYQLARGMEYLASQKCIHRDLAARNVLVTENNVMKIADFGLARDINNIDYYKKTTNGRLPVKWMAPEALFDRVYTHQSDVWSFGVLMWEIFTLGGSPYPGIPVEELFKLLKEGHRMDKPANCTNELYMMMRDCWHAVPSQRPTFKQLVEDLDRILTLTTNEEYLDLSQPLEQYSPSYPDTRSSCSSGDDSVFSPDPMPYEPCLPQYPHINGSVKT

Structure (SMILES) | IC50 (FGFR1) | IC50 (FGFR2; [3]) | IC50 (FGFR3) | IC50 (FGFR2) | further results
C=C(F)C(=O)N1CCc2cc(-c3c(-c4ccc(Oc5nccc(C)n5)c(F)c4)c(C(N)=O)c4ccc(C)nn34)c(C)cc21 [Example 96, 6-(3-fluoro-4-((4-methylpyrimidin-2-yl)oxy)phenyl)-7-(1-(2-fluoroacryloyl)-6-methylindolin-5-yl)-2-methylpyrrolo[1,2-b]pyridazine-5-carboxamide] | 10 to 100 nM | – | – | – | IC50 (FGFR2; [1]): < 10 nM; IC50 (FGFR3; [2]): < 10 nM
C=CC(=O)Nc1ccc(-c2c(-c3ccc(Oc4cccc(C)n4)cc3)c(C(N)=O)c3cnc(S(=O)(=O)NC)cn23)cc1 [Example 18, 6-(4-acrylamidophenyl)-7-(4-((6-methylpyridin-2-yl)oxy)phenyl)-3-(N-methylsulfamoyl)pyrrolo[1,2-a]pyrazine-8-carboxamide] | 100 to 1000 nM | < 10 nM | 10 to 100 nM | – | –
C=CC(=O)Nc1ccc(-c2c(-c3ccc(OC4CCCC4)cc3)c(C(N)=O)c3cnccn23)cc1 [Example 28, 6-(4-acrylamidophenyl)-7-(4-(cyclopentyloxy)phenyl)pyrrolo[1,2-a]pyrazine-8-carboxamide] | 100 to 1000 nM | < 10 nM | – | – | IC50 (FGFR3; [4]): < 10 nM
C=C(F)C(=O)Nc1ccc(-c2c(-c3ccc(Oc4nccc(C)n4)cc3)c(C(N)=O)c3cnc(NC(C)=O)cn23)cc1 [Example 83, 3-acetamido-6-(4-(2-fluoroacrylamido)phenyl)-7-(4-((4-methylpyrimidin-2-yl)oxy)phenyl)pyrrolo[1,2-a]pyrazine-8-carboxamide] | 100 to 1000 nM | – | 10 to 100 nM | – | IC50 (FGFR2; [1]): < 10 nM
C=C(F)C(=O)Nc1ccc(-c2c(-c3ccc(Oc4nccc(C)n4)c(F)c3)c(C(N)=O)c3cc(-c4cnn(C)c4)ncn23)c(C)c1 [Example 92, 6-(3-fluoro-4-((4-methylpyrimidin-2-yl)oxy)phenyl)-7-(4-(2-fluoroacrylamido)-2-methylphenyl)-3-(1-methyl-1H-pyrazol-4-yl)pyrrolo[1,2-c]pyrimidine-5-carboxamide] | 10 to 100 nM | – | – | – | IC50 (FGFR2; [1]): < 10 nM; IC50 (FGFR3; [2]): < 10 nM
C=C(F)C(=O)N1CCc2cc(-c3c(-c4ccc(Oc5nccc(C)n5)c(F)c4)c(C(N)=O)c4cnc(C)cn34)c(C)cc21 [Example 97, 7-(3-fluoro-4-((4-methylpyrimidin-2-yl)oxy)phenyl)-6-(1-(2-fluoroacryloyl)-6-methylindolin-5-yl)-3-methylpyrrolo[1,2-a]pyrazine-8-carboxamide] | 10 to 100 nM | – | – | – | IC50 (FGFR2; [1]): < 10 nM; IC50 (FGFR3; [2]): < 10 nM
C=C(F)C(=O)Nc1ccc(-c2c(-c3ccc(Oc4nccc(C)n4)c(F)c3)c(C(N)=O)c3ccc(C)nn23)cc1 [Example 93, 6-(3-fluoro-4-((4-methylpyrimidin-2-yl)oxy)phenyl)-7-(4-(2-fluoroacrylamido)phenyl)-2-methylpyrrolo[1,2-b]pyridazine-5-carboxamide] | 100 to 1000 nM | – | 10 to 100 nM | 10 to 100 nM | –
Cc1cn2c(-c3ccc(NC(=O)/C=C/CN(C)C)nc3)c(-c3ccc(Oc4cccc(C)n4)cc3)c(C(N)=O)c2cn1 [Example 10, (E)-6-(6-(4-(dimethylamino)but-2-enamido)pyridin-3-yl)-3-methyl-7-(4-((6-methylpyridin-2-yl)oxy)phenyl)pyrrolo[1,2-a]pyrazine-8-carboxamide] | 10 to 100 nM | < 10 nM | 10 to 100 nM | – | –
C=CC(=O)Nc1ccc(-c2c(-c3ccc(Oc4nccc(C)n4)c(F)c3)c(C(N)=O)c3cnc(C)cn23)cc1C [Example 37, 6-(4-acrylamido-3-methylphenyl)-7-(3-fluoro-4-((4-methylpyrimidin-2-yl)oxy)phenyl)-3-methylpyrrolo[1,2-a]pyrazine-8-carboxamide] | – | – | 100 to 1000 nM | 10 to 100 nM | IC50 (FGFR1; [5]): > 1000 nM
C=CC(=O)Nc1ccc(-c2c(-c3ccc(Oc4cccc(C)n4)cc3)c(C(N)=O)c3ccnc(C)n23)cc1 [Example 84, 7-(4-acrylamidophenyl)-1-methyl-6-(4-((6-methylpyridin-2-yl)oxy)phenyl)pyrrolo[1,2-c]pyrimidine-5-carboxamide] | 100 to 1000 nM | < 10 nM | 10 to 100 nM | – | –
C=C(F)C(=O)Nc1ccc(-c2c(-c3cc(F)c(Oc4nccc(C)n4)c(F)c3)c(C(N)=O)c3cnc(C)cn23)cc1 [Example 48, 7-(3,5-difluoro-4-((4-methylpyrimidin-2-yl)oxy)phenyl)-6-(4-(2-fluoroacrylamido)phenyl)-3-methylpyrrolo[1,2-a]pyrazine-8-carboxamide] | 100 to 1000 nM | – | 10 to 100 nM | 10 to 100 nM | –
Cc1cn2c(-c3ccc(NC(=O)/C=C/CN(C)C)cc3)c(-c3ccc(Oc4cccc(C)n4)cc3)c(C(N)=O)c2cn1 [Example 9, (E)-6-(4-(4-(dimethylamino)but-2-enamido)phenyl)-3-methyl-7-(4-((6-methylpyridin-2-yl)oxy)phenyl)pyrrolo[1,2-a]pyrazine-8-carboxamide] | 100 to 1000 nM | < 10 nM | 10 to 100 nM | – | –
C=C(F)C(=O)Nc1ccc(-c2c(-c3ccc(Oc4cc(C)ccn4)cc3)c(C(N)=O)c3cnc(C)cn23)cc1 [Example 52] | – | – | – | 100 to 1000 nM | IC50 (FGFR1; [5]): > 1000 nM; IC50 (FGFR3; [4]): > 1000 nM
C=CC(=O)Nc1ccc(-c2c(-c3ccc(OC)cc3)c(C(N)=O)c3cnccn23)cc1 [Example 22, 6-(4-acrylamidophenyl)-7-(4-methoxyphenyl)pyrrolo[1,2-a]pyrazine-8-carboxamide] | 100 to 1000 nM | – | 100 to 1000 nM | 10 to 100 nM | –
C=CC(=O)Nc1ccc(-c2c(-c3ccc(Oc4cccc(C)n4)cc3)c(C(N)=O)c3cnc(C#N)cn23)cc1 [Example 77, 6-(4-acrylamidophenyl)-3-cyano-7-(4-((6-methylpyridin-2-yl)oxy)phenyl)pyrrolo[1,2-a]pyrazine-8-carboxamide] | – | – | 100 to 1000 nM | 10 to 100 nM | IC50 (FGFR1; [5]): > 1000 nM
C=CC(=O)Nc1ccc(-c2c(-c3ccc(Oc4nccc(C)n4)c(F)c3)c(C(N)=O)c3cnccn23)cc1 [Example 33, 6-(4-acrylamidophenyl)-7-(3-fluoro-4-((4-methylpyrimidin-2-yl)oxy)phenyl)pyrrolo[1,2-a]pyrazine-8-carboxamide] | 10 to 100 nM | < 10 nM | 10 to 100 nM | – | –
C=CC(=O)Nc1ccc(-c2c(-c3ccc(Oc4nccc(C)n4)c(F)c3)c(C(N)=O)c3cnc(CO)cn23)cc1 [Example 78, 6-(4-acrylamidophenyl)-7-(3-fluoro-4-((4-methylpyrimidin-2-yl)oxy)phenyl)-3-(hydroxymethyl)pyrrolo[1,2-a]pyrazine-8-carboxamide] | 100 to 1000 nM | < 10 nM | – | – | IC50 (FGFR3; [4]): < 10 nM
C=CC(=O)Nc1ccc(-c2c(-c3ccc(Oc4cccc(C)n4)cc3)c(C(N)=O)c3cnc(CN(C)C)cn23)cc1 [Example 29, 6-(4-acrylamidophenyl)-3-((dimethylamino)methyl)-7-(4-((6-methylpyridin-2-yl)oxy)phenyl)pyrrolo[1,2-a]pyrazine-8-carboxamide] | – | – | 100 to 1000 nM | 10 to 100 nM | IC50 (FGFR1; [5]): > 1000 nM
C=CC(=O)Nc1ccc(-c2c(-c3ccc(Oc4cccc(C)n4)c(F)c3)c(C(N)=O)c3cnccn23)cc1 [Example 32, 6-(4-acrylamidophenyl)-7-(3-fluoro-4-((6-methylpyridin-2-yl)oxy)phenyl)pyrrolo[1,2-a]pyrazine-8-carboxamide] | 10 to 100 nM | < 10 nM | – | – | IC50 (FGFR3; [4]): < 10 nM
C=CC(=O)Nc1ccc(-c2c(-c3ccc(Oc4nccc(C)n4)c(F)c3)c(C(N)=O)c3cnc(C)cn23)cc1 [Example 35, 6-(4-acrylamidophenyl)-7-(3-fluoro-4-((4-methylpyrimidin-2-yl)oxy)phenyl)-3-methylpyrrolo[1,2-a]pyrazine-8-carboxamide] | 10 to 100 nM | < 10 nM | – | – | IC50 (FGFR3; [4]): < 10 nM
C=C(F)C(=O)Nc1ccc(-c2c(-c3ccc(Oc4nccc(C)n4)c(F)c3)c(C(N)=O)c3cncnn23)cc1 [Example 108, 6-(3-fluoro-4-((4-methylpyrimidin-2-yl)oxy)phenyl)-7-(4-(2-fluoroacrylamido)phenyl)pyrrolo[2,1-f][1,2,4]triazine-5-carboxamide] | – | – | 100 to 1000 nM | 10 to 100 nM | IC50 (FGFR1; read-out: FGFR1 IC50, * incubation at room temperature for 60 minutes before addition of substrate solution, ATP 28 μM, FGFR1 0.01 nM): > 1000 nM
C=CC(=O)N1CCc2cc(-c3c(-c4ccc(Oc5cccc(C)n5)cc4)c(C(N)=O)c4cnccn34)ccc21 [Example 14, 6-(1-acryloylindolin-5-yl)-7-(4-((6-methylpyridin-2-yl)oxy)phenyl)pyrrolo[1,2-a]pyrazine-8-carboxamide] | – | < 10 nM | – | – | IC50 (FGFR1; [5]): < 10 nM; IC50 (FGFR3; [4]): < 10 nM
C=CC(=O)Nc1ccc(-c2c(-c3ccc(S(=O)(=O)C4CC4)cc3)c(C(N)=O)c3cnccn23)cc1 [Example 27, 6-(4-acrylamidophenyl)-7-(4-(cyclopropylsulfonyl)phenyl)pyrrolo[1,2-a]pyrazine-8-carboxamide] | – | – | 100 to 1000 nM | 100 to 1000 nM | IC50 (FGFR1; [5]): > 1000 nM
C=C(F)C(=O)Nc1ccc(-c2c(-c3ccc(Oc4nccc(C)n4)cc3)c(C(N)=O)c3cnc(CCO)cn23)c(F)c1 [Example 81, 6-(2-fluoro-4-(2-fluoroacrylamido)phenyl)-3-(2-hydroxyethyl)-7-(4-((4-methylpyrimidin-2-yl)oxy)phenyl)pyrrolo[1,2-a]pyrazine-8-carboxamide] | 10 to 100 nM | – | – | – | IC50 (FGFR2; [1]): < 10 nM; IC50 (FGFR3; [2]): < 10 nM
